O=C(NC(=O)c1c(F)cccc1F)Nc1cc(Cl)c(F)c(Cl)c1F
solubility (mole fraction)
Details	278.15 K	283.15 K	288.15 K	293.15 K	298.15 K	303.15 K	308.15 K	313.15 K	318.15 K	323.15 K
in DMF	0.174	0.186	0.2	0.213	0.228	0.243	0.26	0.275	0.292	0.308
in ethanol	0.0485	0.0515	0.0549	0.0582	0.0614	0.0647	0.0676	0.0708	0.0744	0.0782
in methanol	0.0672	0.0729	0.0792	0.0854	0.0925	0.1	0.108	0.116	0.124	0.133
in propylene glycol	0.0199	0.0212	0.0227	0.0241	0.0255	0.0269	0.0282	0.0296	0.0311	0.0327
in water	6.82e-06	7.49e-06	8.19e-06	8.88e-06	9.72e-06	1.07e-05	1.17e-05	1.26e-05	1.36e-05	1.47e-05
